Here are results for 33 compounds from patent publication US20030055065A1, “Tricyclic amide and urea compounds useful for inhibition of G-protein function and for treatment of proliferative diseases” (priority 1993, published 2003).

Structures are written as SMILES. Values joined by “and” are separate entries in the source; they are usually repeats but may differ in a detail not shown here. Equal entries are not always repeated. Where two headings read alike, the source gives them in different places.

One may read the IC50 as the concentration that gives 50% inhibition. For orientation: inhibition means the percentage by which the read-out fell short of the control. Low readings indicate little suppression, high ones strong suppression.

Assay [1] concerns the target T1, farnesyl protein transferase (FPT), partially purified from rat brain (Rattus norvegicus, UniProt Q02293+Q04631).
T1 construct: were partially purified from rat brain by ammonium sulfate fractionation followed by Q-Sepharose
Briefly: Inhibition of farnesyl protein transferase (transfer of [3H]farnesyl to Ras-CVLS). Type of assay: biochemical. The essentials:
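Partially purified farnesyl protein transferase with His6-tagged val12-Ha-Ras-CVLS substrate and [3H]farnesyl pyrophosphate, 30 min at room temperature. Stopped with SDS/TCA, precipitated Ras collected on GF/C filters; percent inhibition relative to DMSO vehicle control.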

Assay [2] concerns Normal human HEPM fibroblasts. Briefly: Cell Mat Assay: density of mat cells (mIC50). Type of assay: cell-based. As for the experimental part: (§1) Compound-induced colony inhibition was assayed by addition of serial dilutions of compound directly to the growth medium 24 h after tumor cell planting, and incubating cells for an additional 14 d to allow colony formation. Assays were terminated by rinsing monolayers twice with phosphate-buffered saline (PBS), fixing the monolayers with a 1% glutaraldehyde solution in PBS, then visualizing tumor cells by staining with X-Gal (Price, J., et al., Lineage analysis in the vertebrate nervous system by retrovirus-mediated gene transfer, Proc. Natl. Acad. Sci.84, 156-160(1987)). […] Both IC50 values were obtained by determining the density of tumor cells and mat cells by visual inspection and enumeration of cells per colony and the number of colonies under the microscope.

Assay [3] relates to T24-BAG4 human bladder carcinoma cells expressing an activated H-ras gene. Briefly: Cell Mat Assay: tumor cell colony inhibition (tIC50). The format is cell-based. The conditions noted are these: inhibition of tumor cell growth. As for the experimental part: as §1
Where [4] appears, read: Ras-CVLS farnesylation, partially purified rat brain FPT, read-out: FPT IC50.
Where [5] appears, read: FPT IC50, Ras-CVLS farnesylation, partially purified rat brain FPT.
Setting [6] is: enzyme inhibition, read-out: FPT IC50.

T1 sequence (Q02293 whole entry, one chain of several): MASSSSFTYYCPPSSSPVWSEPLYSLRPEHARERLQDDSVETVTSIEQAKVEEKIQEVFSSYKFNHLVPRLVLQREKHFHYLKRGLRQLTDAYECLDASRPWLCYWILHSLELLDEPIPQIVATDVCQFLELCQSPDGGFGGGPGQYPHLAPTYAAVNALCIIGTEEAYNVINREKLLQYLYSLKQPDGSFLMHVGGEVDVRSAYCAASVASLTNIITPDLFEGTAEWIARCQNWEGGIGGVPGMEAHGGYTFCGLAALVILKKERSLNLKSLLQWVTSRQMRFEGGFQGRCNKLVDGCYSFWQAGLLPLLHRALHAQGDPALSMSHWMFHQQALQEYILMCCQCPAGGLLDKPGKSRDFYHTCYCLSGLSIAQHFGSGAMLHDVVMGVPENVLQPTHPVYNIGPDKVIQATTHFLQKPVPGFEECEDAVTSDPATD

Consider `O=C(C1CCC(O)CC1)N1CCC(=C2c3ccc(Cl)cc3CCc3cccnc32)CC1` (stereo not shown) [Example 97], for which the IC50 is 4.4 µM in assay [1] (setting [4]); greater than 50 µM in assay [2] (Homo sapiens, Fibroblast); greater than 50 µM in assay [3] (Homo sapiens).

Turning to `O=C(c1ccc(Cl)nc1)N1CCC(=C2c3ccc(Cl)cc3CCc3cccnc32)CC1` [Example 98], the 50% inhibitory concentration (IC50) in assay [1] (setting [4]) was 4.4 µM; in assay [2] (Homo sapiens, Fibroblast), greater than 50 µM; in assay [3] (Homo sapiens) it was 50 µM.

Consider `S=C(c1ccccc1)N1CCC(=C2c3ccc(Cl)cc3CCc3cccnc32)CC1` [Example 121], for which the IC50 in assay [1] (setting [4]) is 1.4 µM; in assay [2] (Homo sapiens, Fibroblast) it was greater than 50 µM; in assay [3] (Homo sapiens), 50 µM.

`O=C(Cc1ccccc1[N+](=O)[O-])N1CCC(=C2c3ccc(Cl)cc3CCc3cccnc32)CC1` [Example 126]: the half-maximal inhibitory concentration (IC50) in assay [1] (setting [4]) was 2.9 µM; in assay [2] (Homo sapiens, Fibroblast) it was greater than 50 µM; in assay [3] (Homo sapiens) it was 50 µM.

Regarding `O=C(Cc1ccc(O)cc1)N1CCC(=C2c3ccc(Cl)cc3CCc3cccnc32)CC1` [Example 128], the IC50 in assay [1] (setting [4]) was 3 µM; in assay [2] (Homo sapiens, Fibroblast), greater than 50 µM; in assay [3] (Homo sapiens), 25 µM.

`O=C(Nc1ccccc1)N1CCN(C2c3ccc(Cl)cc3CCc3cccnc32)CC1` (stereo not shown) [Example 182]: the IC50 in assay [1] (setting [4]) is 1.09 µM; in assay [2] (Homo sapiens, Fibroblast) it was greater than 50 µM; in assay [3] (Homo sapiens), 37 µM.

On to `CN(C)c1ccc(CC(=O)N2CCN(C3c4ccc(Cl)cc4CCc4cccnc43)CC2)cc1` (stereo not shown) [Example 189], for which the IC50 is 2.44 µM in assay [1] (setting [5]); greater than 50 µM in assay [2] (Homo sapiens, Fibroblast); 37 µM in assay [3] (Homo sapiens).

As to `CC(C)(C(=O)N1CCN(C2c3ccc(Cl)cc3CCc3cccnc32)CC1)c1ccccc1` (stereo not shown) [Example 190], the IC50 was 3.3 µM in assay [1] (setting [4]); greater than 50 µM in assay [2] (Homo sapiens, Fibroblast); greater than 50 µM in assay [3] (Homo sapiens).

With `CC(C(=O)N1CCN(C2c3ccc(Cl)cc3CCc3cccnc32)CC1)c1cccnc1` (stereo not shown) [Example 191], the IC50 in assay [1] (setting [4]) is 4.9 µM; in assay [2] (Homo sapiens, Fibroblast), 50 µM; in assay [3] (Homo sapiens), less than 3.1 µM.

On to `O=C(Cc1ccccn1)N1CCN(C2c3ccc(Cl)cc3CCc3cccnc32)CC1` (stereo not shown) [Example 196], for which the concentration for half-maximal inhibition (IC50) is 0.36 µM in assay [1] (setting [5]); greater than 50 µM in assay [2] (Homo sapiens, Fibroblast); 37 µM in assay [3] (Homo sapiens); 25 µM in assay [3] (listed as 196 (5.69)).

On to `O=C(Cc1ccc[n+]([O-])c1)N1CCN(C2c3ccc(Cl)cc3CCc3cccnc32)CC1` (stereo not shown) [Example 197], for which the half-maximal inhibitory concentration (IC50) in assay [1] (setting [5]) was 1.17 µM; in assay [2] (Homo sapiens, Fibroblast), greater than 50 µM; in assay [3] (Homo sapiens), 25 µM.

In the case of `CC(C)(C)OC(=O)NCC(=O)N1CCN(C2c3ccc(Cl)cc3CCc3cccnc32)CC1` (stereo not shown) [Example 208], the IC50 was 4.8 µM in assay [1] (setting [4]); greater than 50 µM in assay [2] (Homo sapiens, Fibroblast); greater than 50 µM in assay [3] (Homo sapiens).

For the compound `O=C(Cc1ccccc1)NCC(=O)N1CCN(C2c3ccc(Cl)cc3CCc3cccnc32)CC1` (stereo not shown) [Example 209], the 50% inhibitory concentration (IC50) is 7.92 µM in assay [1] (setting [4]); greater than 50 µM in assay [2] (Homo sapiens, Fibroblast); 25 µM in assay [3] (Homo sapiens).

Consider `O=C(Cc1cccc(O)c1)NCC(=O)N1CCN(C2c3ccc(Cl)cc3CCc3cccnc32)CC1` (stereo not shown) [Example 211], for which the IC50 is 8.17 µM in assay [1] (setting [4]); greater than 50 µM in assay [2] (Homo sapiens, Fibroblast); 37 µM in assay [3] (Homo sapiens).

For the compound `O=C(Cc1ccccc1O)NCC(=O)N1CCN(C2c3ccc(Cl)cc3CCc3cccnc32)CC1` (stereo not shown) [Example 212], the IC50 in assay [1] (setting [4]) was 7.92 µM; in assay [2] (Homo sapiens, Fibroblast), 37 µM; in assay [3] (Homo sapiens), 25 µM.

Regarding `O=C(CCc1ccccc1)NCC(=O)N1CCN(C2c3ccc(Cl)cc3CCc3cccnc32)CC1` (stereo not shown) [Example 217], the IC50 amounted to 6.75 µM in assay [1] (setting [4]); 50 µM in assay [2] (Homo sapiens, Fibroblast); 37 µM in assay [3] (Homo sapiens).

Regarding `O=C(CCc1ccc(O)cc1)NCC(=O)N1CCN(C2c3ccc(Cl)cc3CCc3cccnc32)CC1` (stereo not shown) [Example 218], the IC50 was 9.92 µM in assay [1] (setting [4]); 50 µM in assay [2] (Homo sapiens, Fibroblast); 37 µM in assay [3] (Homo sapiens).

Turning to `O=C(Cc1cccnc1)N1CCC(=C2c3ccc(Cl)cc3CCc3ccc[n+]([O-])c32)CC1` [Example 229], the concentration for half-maximal inhibition (IC50) in assay [1] (setting [4]) is 4.38 µM; in assay [2] (Homo sapiens, Fibroblast) it was greater than 50 µM; in assay [3] (Homo sapiens), 37 µM.

Compound `O=C(Cc1ccc[n+]([O-])c1)N1CCC(C2c3ccc(Cl)cc3CCc3ccc[n+]([O-])c32)CC1` (stereo not shown) [Example 237] registered an inhibition at 4 µM in assay [1] (at 4 μM) of 18%. Further, the IC50 in assay [2] (Homo sapiens, Fibroblast) is greater than 50 µM; in assay [3] (Homo sapiens), greater than 50 µM.

As for `CN(C)c1ccc(CC(=O)N2CCC(=C3c4ccc(Cl)cc4CCc4cccnc43)CC2)cc1` [Example 297], the IC50 in assay [1] (setting [4]) was 2.71 µM; in assay [2] (Homo sapiens, Fibroblast), greater than 50 µM; in assay [3] (Homo sapiens), greater than 50 µM.

In assay [1] (at 4 μM), `CC(C)(C)c1cnc2c(c1)CCc1cc(Cl)ccc1C2=C1CCN(C(=O)Cc2ccncc2)CC1` [Example 305] showed an FPT inhibition of 40% @4 μM. Also, the half-maximal inhibitory concentration (IC50) in assay [2] was greater than 50 µM; in assay [3], 25 µM.

As for `O=C(Cc1ccncc1)N1CCC(=C2c3ccc(Cl)cc3C=Cc3cccnc32)CC1` [Example 307], the half-maximal inhibitory concentration (IC50) in assay [1] (setting [4]) is 0.22 µM and 0.14 µM; in assay [2], 50 µM; in assay [3], 12.5 µM.

As to `O=C(Cc1ccncc1)N1CCC(=C2c3cc(F)ccc3CCc3cccnc32)CC1` [Example 310], the IC50 is 3.6 µM in assay [1] (setting [4]), greater than 50 µM in assay [2] and 25 µM in assay [3].

As for `O=C(NCc1ccccc1)N1CCC(C2c3ccc(Cl)cc3CCc3cccnc32)CC1` (stereo not shown) [Example 318], the 50% inhibitory concentration (IC50) in assay [1] (setting [4]) turned out to be 4.1 µM; in assay [2] (Homo sapiens, Fibroblast), 37 µM; in assay [3] (Homo sapiens), 37 µM.

For `O=C(Cc1ccc(O)c(O)c1)N1CCC(C2c3ccc(Cl)cc3CCc3cccnc32)CC1` (stereo not shown) [Example 321], the IC50 in assay [1] (setting [4]) was 6 µM; in assay [2] (Homo sapiens, Fibroblast), greater than 50 µM; in assay [3] (Homo sapiens), 6.25 µM.

In the case of `O=C(Cc1cccnc1)N1CCN(C2c3ccc(Cl)cc3CCc3c(Cl)ccnc32)CC1` (stereo not shown) [Example 355], the half-maximal inhibitory concentration (IC50) in assay [1] (setting [5]) is 0.88 µM; in assay [2] (Homo sapiens, Fibroblast) it was greater than 25 µM; in assay [3] (Homo sapiens), 8 µM.

For the compound `Nc1cnc2c(c1)C=Cc1cc(Cl)ccc1C2C1CCN(C(=O)Cc2ccncc2)CC1` (stereo not shown) [Example 402-A], the half-maximal inhibitory concentration (IC50) is 0.45 µM and 0.56 µM in assay [1] (FPT IC50, enzyme inhibition); greater than 25 µM in assay [2] (Homo sapiens, Fibroblast); 3.1 µM in assay [3] (Homo sapiens).

As to `Nc1cc2c(nc1Br)C(=C1CCN(C(=O)Cc3ccncc3)CC1)c1ccc(Cl)cc1CC2` [Example 405], the IC50 in assay [1] (setting [6]) was 1.3 µM; in assay [2] (Homo sapiens, Fibroblast), greater than 25 µM; in assay [3] (Homo sapiens), 12.5 µM.

For the compound `CC(C)(C(=O)N1CCC(=C2c3ccc(Cl)cc3CCc3cccnc32)CC1)c1cc[n+]([O-])cc1` [Example 411-E], the half-maximal inhibitory concentration (IC50) was 1.14 µM in assay [1] (setting [6]); greater than 25 µM in assay [2] (Homo sapiens, Fibroblast); greater than 25 µM in assay [3] (Homo sapiens).

With `O=C(Cc1cc[n+]([O-])cc1)N1CCN(C2c3ccc(Cl)cc3CCc3cccnc32)CC1` (stereo not shown) [Example 425-B], the half-inhibitory concentration (IC50) in assay [1] (setting [6]) was 0.74 µM; in assay [2] (Homo sapiens, Fibroblast) it was greater than 25 µM; in assay [3] (Homo sapiens), 12.5 µM.

`O=C(Cc1cc[n+]([O-])cc1)N1CCN(C2c3ccc(Cl)cc3CCc3cc(Br)cnc32)CC1` (stereo not shown) [Example 425-H]: the IC50 in assay [1] (FPT IC50, enzyme inhibition) is 0.059 µM and 0.049 µM and 0.075 µM; in assay [2] (Homo sapiens, Fibroblast), greater than 25 µM; in assay [3] (Homo sapiens) it was less than 1.6 µM.

Take `O=C(Cc1ccc[n+]([O-])c1)N1CCN(C2c3ccc(Cl)cc3CCc3cc(Br)cnc32)CC1` (stereo not shown) [Example 425-K]: the IC50 in assay [1] (FPT IC50, enzyme inhibition) was 0.4 µM and 0.41 µM; in assay [2] (Homo sapiens, Fibroblast), greater than 25 µM; in assay [3] (Homo sapiens), 6.25 µM.

As to `CC(C)(C(=O)N1CCN(C2c3ccc(Cl)cc3CCc3cccnc32)CC1)c1ccncc1` (stereo not shown) [Example 425], the 50% inhibitory concentration (IC50) in assay [1] (setting [6]) was 1.74 µM; in assay [2] (Homo sapiens, Fibroblast), greater than 25 µM; in assay [3] (Homo sapiens) it was 12.5 µM.
